Values of other authors in patent US20100087454A1, “MUCOSAL BIOADHESIVE SLOW RELEASE CARRIER FOR DELIVERING ACTIVE PRINCIPLES” (priority 2007, published 2010).

Conditions: after systemic administration orally; relative to 50% inhibitory dose of herpes simplex-1 virus

Structure (SMILES): Nc1nc2c(ncn2COCCO)c(=O)[nH]1 [acyclovir]
- peak acyclovir concentrations in saliva: at the lower end of the 50% inhibitory dose of herpes simplex-1 virus
